US20060247227A1, “Substituted piperidines as histamine h3 receptor ligands” (priority 2003, published 2006)
Where a name gives a salt, the structure may show the parent alone.

How the values were obtained:
[1] = target: T1, histamine H3 receptor (Homo sapiens, UniProt Q9Y5N1); test: Histamine H3 functional antagonist assay ([35S]GTPγS, SPA, membranes of CHO K1 cells expressing the receptor); type: biochemical; conditions: histamine-stimulated GTPγS binding, membranes with human H3
T1 construct: expressed in transfected cells; host or cells: CHO K1 cells carrying pSwitch, transfected with pGeneH3 and induced with mifepristone; clone 3H3; membranes
Text: A membrane preparation containing histamine H3 receptors may be prepared in accordance with the following procedures:
(i) Generation of Histamine H3 Cell Line
DNA encoding the human histamine H3 gene (Huvar, A. et al. (1999) Mol. Pharmacol. 55(6), 1101-1107) was cloned into a holding vector, pCDNA3.1 TOPO (InVitrogen) and its cDNA was isolated from this vector by restriction digestion of plasmid DNA with the enzymes BamH1 and Not-1 and ligated into the inducible expression vector pGene (InVitrogen) digested with the same enzymes. The GeneSwitch™ system (a system where in transgene expression is switched off in the absence of an inducer and switched on in the presence of an inducer) was performed as described in U.S. Pat. Nos. 5,364,791; 5,874,534; and 5,935,934. Ligated DNA was transformed into competent DH5α E. coli host bacterial cells and plated onto Luria Broth (LB) agar containing Zeocin™ (an antibiotic which allows the selection of cells expressing the sh ble gene which is present on pGene and pSwitch) at 50 μg ml^−1. Colonies containing the re-ligated plasmid were identified by restriction analysis. DNA for transfection into mammalian cells was prepared from 250 ml cultures of the host bacterium containing the pGeneH3 plasmid and isolated using a DNA preparation kit (Qiagen Midi-Prep) as per manufacturers guidelines (Qiagen).
CHO K1 cells previously transfected with the pSwitch regulatory plasmid (InVitrogen) were seeded at 2×10e6cells per T75 flask in Complete Medium, containing Hams F12 (GIBCOBRL, Life Technologies) medium supplemented with 10% v/v dialysed foetal bovine serum, L-glutamine, and hygromycin ([…]), 24 hours prior to use. Plasmid DNA was transfected into the cells using Lipofectamine plus according to the manufacturers guidelines (InVitrogen). 48 hours post transfection cells were placed into complete medium supplemented with […] Zeocin™.
10-14 days post selection 10 nM Mifepristone (InVitrogen), was added to the culture medium to induce the expression of the receptor. 18 hours post induction cells were detached from the flask using ethylenediamine tetra-acetic acid (EDTA; 1:5000; InVitrogen), following several washes with phosphate buffered saline pH 7.4and resuspended in Sorting Medium containing Minimum Essential Medium (MEM), without phenol red, and supplemented with Earles salts and 3% Foetal Clone II (Hyclone). Approximately 1×10e7 cells were examined for receptor expression by staining with a rabbit polyclonal antibody, 4a, raised against the N-terminal domain of the histamine H3 receptor, incubated on ice for 60 minutes, followed by two washes in sorting medium. Receptor bound antibody was detected by incubation of the cells for 60 minutes on ice with a goat anti rabbit antibody, conjugated with Alexa 488 fluorescence marker (Molecular Probes). Following two further washes with Sorting Medium, cells were filtered through a 50 μm Filcon™ (BD Biosciences) and then analysed on a FACS Vantage SE Flow Cytometer fitted with an Automatic Cell Deposition Unit. Control cells were non-induced cells treated in a similar manner. Positively stained cells were sorted as single cells into 96-well plates, containing Complete Medium containing 500 μg ml^−1 Zeocin™ and allowed to expand before reanalysis for receptor expression via antibody and ligand binding studies. One clone, 3H3, was selected for membrane preparation.
(ii) Membrane Preparation from Cultured Cells
All steps of the protocol are carried out at 4° C. and with pre-cooled reagents. The cell pellet is resuspended in 10 volumes of buffer A2 containing 50 mM N-2-hydroxyethylpiperazine-N′-2-ethanesulfonic acid (HEPES) (pH 7.40) supplemented with […] leupeptin (acetyl-leucyl-leucyl-arginal; Sigma L2884), 25 μg/ml bacitracin (Sigma B0125), 1 mM ethylenediamine tetra-acetic acid (EDTA), 1 mM phenylmethylsulfonyl fluoride (PMSF) and 2×10e-6M pepstain A (Sigma). […]

T1 sequence (Q9Y5N1 whole entry): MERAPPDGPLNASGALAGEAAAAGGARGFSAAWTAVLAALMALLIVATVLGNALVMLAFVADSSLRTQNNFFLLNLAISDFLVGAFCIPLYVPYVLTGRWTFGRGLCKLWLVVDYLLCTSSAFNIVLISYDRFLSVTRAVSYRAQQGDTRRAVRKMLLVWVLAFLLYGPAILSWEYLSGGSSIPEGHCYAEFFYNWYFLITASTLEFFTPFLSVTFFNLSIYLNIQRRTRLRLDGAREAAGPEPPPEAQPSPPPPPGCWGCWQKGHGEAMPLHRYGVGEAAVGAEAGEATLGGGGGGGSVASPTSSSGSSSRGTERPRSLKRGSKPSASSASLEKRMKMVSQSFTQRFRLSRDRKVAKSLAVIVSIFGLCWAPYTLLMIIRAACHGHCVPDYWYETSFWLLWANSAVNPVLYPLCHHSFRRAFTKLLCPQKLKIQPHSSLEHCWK

Row | SMILES | melting point [°C] | Ki [1] [nM]
1 | CNC(=O)c1ccc(N2CCC(OC3CCN(C4CCC4)CC3)CC2)cn1 [Example E38A, 5-{4-[(1-Cyclobutyl-4-piperidinyl)oxy]-1-piperidinyl}-N-methyl-2-pyridinecarboxamide] | 109.7 | –
2 | CC(=O)c1ccc(N2CCC(OC3CCN(CC4CC4)CC3)CC2)cc1 [Example E103, 1-[4-(4-{[1-(Cyclopropylmethyl)-4-piperidinyl]oxy}-1-piperidinyl)phenyl]ethanone] | – | < 10
3 | O=C(NC1CCC1)c1ccc(N2CCC(OC3CCN(C4CCC4)CC3)CC2)cn1 [Example E104, N-Cyclobutyl-5-{4-[(1-cyclobutyl-4-piperidinyl)oxy]-1-piperidinyl}-2-pyridinecarboxamide] | – | ≤ 1
4 | CC(C)N1CCC(OC2CCN(c3ccc(C(=O)NC4CCC4)nc3)CC2)CC1 [Example E105, N-Cyclobutyl-5-(4-{[1-(1-methylethyl)-4-piperidinyl]oxy}-1-piperidinyl)-2-pyridinecarboxamide] | – | ≤ 1
5 | CC(C)N1CCC(OC2CCN(c3ccc(C(=O)NCCCCl)cc3)CC2)CC1 [Example E106, N-(3-Chloropropyl)-4-(4-{[1-(1-methylethyl)-4-piperidinyl]oxy}-1-piperidinyl)benzamide hydrochloride] | – | ≤ 1
6 | O=C(NCCCCl)c1ccc(N2CCC(OC3CCN(C4CCC4)CC3)CC2)cn1 [Example E107, N-(3-Chloropropyl)-5-{4-[(1-cyclobutyl-4-piperidinyl)oxy]-1-piperidinyl}-2-pyridinecarboxamide hydrochloride] | – | ≤ 1
7 | CC(C)N1CCC(OC2CCN(c3ccc(C(=O)NCCCCl)nc3)CC2)CC1 [Example E108, N (3-Chloropropyl)-5-(4-{[1-(1-methylethyl)-4-piperidinyl]oxy}-1-piperidinyl)-2-pyridinecarboxamide hydrochloride] | – | ≤ 1
8 | CC(=O)c1ccc(N2CCC(OC3CCN(C4CCC4)CC3)CC2)c(F)c1 [Example E109, 1-(4-{4-[(1-Cyclobutyl-4-piperidinyl)oxy]-1-piperidinyl}-3-fluorophenyl)ethanone] | – | ≤ 1
9 | Cc1noc(-c2ccc(N3CCC(OC4CCN(C5CCC5)CC4)CC3)cc2F)n1 [Example E110, 1-Cyclobutyl-4-({1-[3-fluoro-4-(3-methyl-1,2,4-oxadiazol-5-yl)phenyl]-4-piperidinyl}oxy)piperidine] | – | ≤ 1
10 | CC(=O)c1ccc(N2CCC(OC3CCN(C4CCC4)CC3)CC2)cn1 [Example E111, 1-(5-{4-[(1-Cyclobutyl-4-piperidinyl)oxy]-1-piperidinyl}-2-pyridinyl)ethanone] | – | ≤ 1
11 | Cc1noc(-c2ccc(N3CCC(OC4CCN(C(C)C)CC4)CC3)c(F)c2)n1 [Example E112, 1-[2-Fluoro-4-(3-methyl-1,2,4-oxadiazol-5-yl)phenyl]-4-{[1-(1-methylethyl)-4-piperidinyl]oxy}piperidine hydrochloride] | – | ≤ 1
12 | Cc1noc(-c2ccc(N3CCC(OC4CCN(C(C)C)CC4)CC3)cc2F)n1 [Example E113, 1-[3-Fluoro-4-(3-methyl-1,2,4-oxadiazol-5-yl)phenyl]-4-{[1-(1-methylethyl)-4-piperidinyl]oxy}piperidine hydrochloride] | – | ≤ 1
